The test system of one assay is bovine tubulin. Nature of the assay: In vitro tubulin polymerization assay (turbidity at 340 nm). It counts as biochemical. Conditions: 10 μM compound, 30 minute data point, vs 1% DMSO control. In short, it runs like this:
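Bovine tubulin (97%, <3% MAPs) at 3 mg/ml final in G-PEM pH 7 with 1 mM GTP and 5% glycerol, added cold to compound wells at 37° C (1% DMSO final). A340 read each minute for 30 min; percent inhibition from 30-min point versus DMSO control.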

The test system of assay [1] is A431 human cancer cell line. Kind of assay: Sulphorhodamine B (SRB) growth inhibition assay. It counts as cell-based. Conditions: A-431, A431 cells, 48 hours, read-out: SRB Assay: μM required to inhibit tumor cell growth by 50% (GI50). The protocol: The in vitro growth inhibition activity of the compounds was determined by the Sulphorhodamine B assay. (Skehan P, Storeng R, Scudiero D, Monks A, McMahon J, Vistica D, Warren J T, Bokesch H, Kenney S, Boyd M R. New colorimetric cytotoxicity assay for anticancer-drug screening. J Natl Cancer Inst 82, 1107-1112, 1990). Sulphorhodamine B binds to basic amino acids and stains proteins which can be eluted and detected spectrophotometically by measuring absorbance at 515 nm. The absorbance was indicative of the total protein content of the cells fixed to the walls of the plate well at a given time by trichloroacetic acid, which is a measure of the viable cell concentration.
The in vitro growth inhibition activity of the compounds was determined using a Sulphorhodamine B assay. See, Skehan et al., “New colorimetric cytotoxicity assay for anticancer-drug screening,” J. Natl. Cancer Inst., 82, 1107-1112, (1990). Sulphorhodamine B binds to basic amino acids and stains proteins which can be eluted and detected spectrophotometically by measuring absorbance at 515 nm. The absorbance indicates the total protein content of the cells fixed to the walls of the plate well at a given time by trichloroacetic acid, which is a measure of the viable cell concentration.
The reagents used in the assay can be purchased from commercial sources and include Sulphorhodamine B 0.4% (w/v) in 1% (v/v) acetic acid (Sigma Cat#S-1402); trichloroacetic acid 50% (w/v) in deionized water, working solution (Sigma Cat#T-9159); and trizma base (Tris) 10 mM working solution, pH 7.5 (Sigma Cat#T-7693).
The procedure was cared out over four days. In Day 1, the cells were seeded in a seed 10,000 cells/100 μL/well in 96 well plate in duplicates as per template. Also, seed cells in extra plate for time zero (To plate). Thereafter, the cells were incubated for 24 hours at 37° C. with 5% CO2.
On Day 2, the test compound was added to the cells at five log doses from 100 μM to 0.01 μM (Volume of addition=100 μL in 1% DMSO for all compound concentrations, Control treatment=1% DMSO).
The compounds were prepared by weighing the test compounds in 1.5 ml eppendorf tubes and calculating the volume of DMSO to be added to bring the concentration of the compound to 20 mM. Thereafter, a 20 mM stock was made and diluted by four 10 fold dilutions in DMSO to get 2, 0.2, 0.02 and 0.002 mM solutions. Each solution was diluted 100 times (10 μL to 1 ml medium) and a further addition to the culture plate (100 μL) to half the concentration of cells was made. The final well concentration for 20 mM stock was 100 μM and similarly with other test concentrations.
The cells were incubated for 48 hours at 37° C. with 5% CO2 and terminated by adding 50 μL of 50% cold trichloroacetic acid (10% to final). Thereafter, the cells were incubated for one hour at 4° C.
On Day 4, the cells were fixed to the wells by the addition of 50 μL of 50% cold trichloroacetic acid (10% to final) and incubated for 1 hour at 4° C. The supernatant was discarded by force inverting the plate into the sink followed by washing thrice with tap water and the plates are then air-dried. 100 μL SRB (0.4% in 1% acetic acid) was added to each well and the plates were incubated for 10 minutes at room temperature. Unbound dye was removed by force inverting the plate into the sink and washing thrice with 1% acetic acid. Thereafter, the plates were allowed to air dry.
Bound SRB was solubilized with 100 μL of 10 mM Tris, pH 7.4 and the absorbance was measured at a wavelength of 515 nm.
A sample set of calculations was performed as follows. The percentage growth was calculated by T-To/C-To X 100 if T>To and T-To/To X 100 if T<To, wherein T is Test OD (with compound), C is Control OD, To is Time Zero OD (cell growth at the time of drug addition). […]

Assay [2] deals with A431, human epidermoid carcinoma cells. Nature of the assay: Cell cycle analysis (FACS), mitotic arrest in G2/M. It counts as cell-based. Conditions: Homo sapiens, A-431, 24 h, read-out: FACS Assay: concentration required to achieve inhibition in FACS assay. In short, it runs like this: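 A431 cells, 500,000/well at treatment, exposed to compounds at 0.01–1 μM final (0.1% DMSO) for 24 h. Ethanol-fixed cells RNase-treated (1 μg/ml, 37° C., 15 min), stained with propidium iodide (50 μg/ml, 30 min, RT). DNA ploidy by flow cytometry; mitotic arrest scored as G2/M accumulation.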

The record followed here is patent US20090048301A1 (IMCLONE SYSTEMS INCORPORATED, priority 2003, published 2009).

`COc1ccc(Nc2nnc(-c3cccnc3NCc3ccc4c(c3)OCO4)[nH]2)c(OC)c1` [Compound 17, Benzo[1,3]dioxol-5-ylmethyl-{3-[5-(2,4-dimethoxy-phenylamino)-4H-[1,2,4]triazol-3-yl]-pyridin-2-yl}-amine]: the “Tubulin Assay: percent inhibition at 10 μM based on 30 minute data” value (shortened to “Tubulin Assay: percent inhibition”) in the assay on bovine tubulin amounted to 80%. The GI50 in assay [1] was determined as 4 µM. Moreover, in assay [2], the minimal effective concentration was 10 µM.

Take `COc1cccc(Nc2nnc(-c3cccnc3Nc3cc(OC)cc(OC)c3)[nH]2)c1` [Compound 2, (3,5-Dimethoxy-phenyl)-{3-[5-(3-methoxy-phenylamino)-4H-[1,2,4]triazol-3-yl]-pyridin-2-yl}-amine]: the “Tubulin Assay: percent inhibition” value in the assay on bovine tubulin came to 80%. The concentration for 50% growth inhibition (GI50) in assay [1] was 0.7 µM. Further, the minimal effective concentration in assay [2] was 0.1 µM.

On to `COc1cc(Nc2ncccc2-c2nnc(Nc3ccc(C#N)cc3)[nH]2)cc(OC)c1` [Compound 4, 4-{5-[2-(3,5-Dimethoxy-phenylamino)-pyridin-3-yl]-4H-[1,2,4]triazol-3-ylamino}-benzonitrile], for which, in the assay on bovine tubulin, the “Tubulin Assay: percent inhibition” value is 32%. Also, the GI50 in assay [1] came to 4 µM. For the same molecule, the minimal effective concentration in assay [2] was 10 µM.

Take `CS(=O)(=O)c1ccc(-c2nnc(-c3ccccc3NCc3ccncc3)[nH]2)cc1` [Compound 129]: the “Tubulin Assay: percent inhibition” value with bovine tubulin turned out to be 84%. Also, the GI50 in assay [1] was 0.025 µM. Besides, the minimal effective concentration in assay [2] is 0.1 µM.

On to `COc1cc(Nc2ncccc2-c2nnc(Nc3ccc4c(c3)OCCO4)o2)cc(OC)c1` [Compound 193, {3-[5-(2,3-Dihydro-benzo[1,4]dioxin-6-ylamino)-[1,3,4]oxadiazol-2-yl]-pyridin-2-yl}-(3,5-dimethoxy-phenyl)-amine], for which the “Tubulin Assay: percent inhibition” value in the assay with bovine tubulin amounted to 69%. Besides, in assay [1], the GI50 is 0.01 µM. In addition, in assay [2], the minimal effective concentration stood at 0.01 µM.

In the case of `c1ccc(-c2nnc(Nc3ccc4c(c3)OCCO4)o2)c(NCc2ccncc2)c1` [Compound 215, (2,3-Dihydro-benzo[1,4]dioxin-6-yl)-(5-{2-[(pyridin-4-ylmethyl)-amino]-phenyl}-[1,3,4]oxadiazol-2-yl)-amine], the “Tubulin Assay: percent inhibition” value in the assay with bovine tubulin came out at 100%. Further, in assay [1], the GI50 is 10 µM. The minimal effective concentration in assay [2] was determined as 0.01 µM.

Consider `O=C1CCCN1CCCNc1ncccc1-c1nnc(Nc2ccc3c(c2)OCCO3)o1` [Compound 192, 1-(3-{3-[5-(2,3-Dihydro-benzo[1,4]dioxin-6-ylamino)-[1,3,4]oxadiazol-2-yl]-pyridin-2-ylamino}-propyl)-pyrrolidin-2-one], for which, in the assay on bovine tubulin, the “Tubulin Assay: percent inhibition” value was found to be 85%. Moreover, in assay [1], the GI50 worked out at 0.01 µM. Moreover, in assay [2], the minimal effective concentration was determined as 0.1 µM.

As for `COc1cccc(Nc2nnc(-c3cccnc3Nc3ccc4c(c3)OCO4)[nH]2)c1` [Compound 7, Benzo[1,3]dioxol-5-yl-{3-[5-(3-methoxy-phenylamino)-4H-[1,2,4]triazol-3-yl]-pyridin-2-yl}-amine], the “Tubulin Assay: percent inhibition” value in the assay on bovine tubulin was 47%. For the same molecule, in assay [1], the concentration for 50% growth inhibition (GI50) came to 15 µM. Besides, the minimal effective concentration in assay [2] came out at 10 µM.

Regarding `COc1ccc(-c2nnc(-c3cccnc3NCc3ccc4c(c3)OCO4)[nH]2)cc1OC` [Compound 78, Benzo[1,3]dioxol-5-ylmethyl-{3-[5-(3,4-dimethoxy-phenyl)-4H-[1,2,4]triazol-3-yl]-pyridin-2-yl}-amine], the “Tubulin Assay: percent inhibition” value in the assay on bovine tubulin is listed as 55%. In addition, the concentration for 50% growth inhibition (GI50) in assay [1] was 3 µM. Further, the minimal effective concentration in assay [2] was 1 µM.

Turning to `COc1cccc(Nc2nnc(-c3cccnc3NCc3cccnc3)[nH]2)c1` [Compound 25, {3-[5-(3-Methoxy-phenylamino)-4H-[1,2,4]triazol-3-yl]-pyridin-2-yl}-pyridin-3-ylmethyl-amine], the “Tubulin Assay: percent inhibition” value with bovine tubulin is on record as 77%. Further, the concentration for 50% growth inhibition (GI50) in assay [1] came out at 0.5 µM. The minimal effective concentration in assay [2] came to 1 µM.

With `COc1cc(Nc2nnc(-c3cccnc3NCc3ccc4c(c3)OCO4)[nH]2)cc(OC)c1` [Compound 16, Benzo[1,3]dioxol-5-ylmethyl-{3-[5-(3,5-dimethoxy-phenylamino)-4H-[1,2,4]triazol-3-yl]-pyridin-2-yl}-amine], the “Tubulin Assay: percent inhibition” value in the assay with bovine tubulin is given as 41%. Further, in assay [1], the concentration for 50% growth inhibition (GI50) worked out at 2.5 µM.

On to `COc1cccc(Nc2nnc(-c3cccnc3NCc3cccnc3)o2)c1` [Compound 185, {3-[5-(3-Methoxy-phenylamino)-[1,3,4]oxadiazol-2-yl]-pyridin-2-yl}-pyridin-3-ylmethyl-amine], for which, in the assay on bovine tubulin, the “Tubulin Assay: percent inhibition” value is given as 40%. The 50% growth inhibitory concentration (GI50) in assay [1] was 30 µM.

Consider `CS(=O)(=O)c1ccc(-c2nnc(-c3cccnc3NCc3cccnc3)[nH]2)cc1` [Compound 89, {3-[5-(4-Methanesulfonyl-phenyl)-4H-[1,2,4]triazol-3-yl]-pyridin-2-yl}-pyridin-3-ylmethyl-amine], for which, in the assay with bovine tubulin, the “Tubulin Assay: percent inhibition” value is reported as 85%. Further, the GI50 in assay [1] amounted to 5 µM.

As for `COc1cc(OC)cc(-c2nnc(-c3cccnc3NCc3cccnc3)[nH]2)c1` [Compound 87, {3-[5-(3,5-Dimethoxy-phenyl)-4H-[1,2,4]triazol-3-yl]-pyridin-2-yl}-pyridin-3-ylmethyl-amine], the “Tubulin Assay: percent inhibition” value with bovine tubulin came to 85%. Further, the GI50 in assay [1] is 30 µM.

As to `COc1cccc(-c2nnc(-c3cccnc3NCc3ccc4c(c3)OCO4)[nH]2)c1` [Compound 80, Benzo[1,3]dioxol-5-ylmethyl-{3-[5-(3-methoxy-phenyl)-4H-[1,2,4]triazol-3-yl]-pyridin-2-yl}-amine], the “Tubulin Assay: percent inhibition” value in the assay with bovine tubulin was 46%. Besides, the concentration for 50% growth inhibition (GI50) in assay [1] turned out to be 8 µM.

For `FC(F)(F)c1cccc(-c2nnc(-c3ccccc3NCc3cccnc3)[nH]2)c1` [Compound 130, Pyridin-3-ylmethyl-{2-[5-(3-trifluoromethyl-phenyl)-4H-[1,2,4]triazol-3-yl]-phenyl}-amine], the “Tubulin Assay: percent inhibition” value in the assay on bovine tubulin is on record as 47%. In addition, in assay [1], the 50% growth inhibitory concentration (GI50) turned out to be 2.75 µM.

Regarding `COc1cc(Nc2ncccc2-c2nnc(Nc3ccc(OC)c(OC)c3)o2)cc(OC)c1` [Compound 178, (3,5-Dimethoxy-phenyl)-{3-[5-(3,4-dimethoxy-phenylamino)-[1,3,4]oxadiazol-2-yl]-pyridin-2-yl}-amine], in the assay on bovine tubulin, the “Tubulin Assay: percent inhibition” value was 40%. Besides, in assay [1], the GI50 was 0.3 µM.

As to `COc1ccc(Nc2nnc(-c3cccnc3Nc3ccc4c(c3)OCO4)[nH]2)cc1` [Compound 8, Benzo[1,3]dioxol-5-yl-{3-[5-(4-methoxy-phenylamino)-4H-[1,2,4]triazol-3-yl]-pyridin-2-yl}-amine], the “Tubulin Assay: percent inhibition” value in the assay on bovine tubulin came to 100%. Also, the concentration for 50% growth inhibition (GI50) in assay [1] amounted to 0.3 µM.
